ChEMBL document CHEMBL5512640, “Discovery of novel itaconimide-based derivatives as potent HDAC inhibitors for the efficient treatment of prostate cancer” (Eur J Med Chem, 2024)
Active and inactive are the calls of the source. No cut-off for these calls is given here.

How the values were obtained:
[1] = system: DU-145; assay: Induction of apoptosis in human DU-145 cells measured after 72 hrs by annexin V-FITC and PI staining based flow cytometry analysis; assay type: functional, cell-based; settings: dose 0.4-1.6 µM
[2] = system: DU-145; assay: Inhibition of colony formation in human DU-145 cells assessed as suppression of colony formation measured after 2 weeks by crystal violet staining based analysis; assay type: functional, cell-based; settings: dose 0.4-3.2 µM
[3] = target: Protein deacetylase HDAC6 (Homo sapiens, UniProt Q9UBN7); assay: Inhibition of human HDAC6 incubated for 10 mins followed by fluorogenic substrate addition by fluorescence based analysis
Chain of Protein deacetylase HDAC6 (Q9UBN7 whole entry): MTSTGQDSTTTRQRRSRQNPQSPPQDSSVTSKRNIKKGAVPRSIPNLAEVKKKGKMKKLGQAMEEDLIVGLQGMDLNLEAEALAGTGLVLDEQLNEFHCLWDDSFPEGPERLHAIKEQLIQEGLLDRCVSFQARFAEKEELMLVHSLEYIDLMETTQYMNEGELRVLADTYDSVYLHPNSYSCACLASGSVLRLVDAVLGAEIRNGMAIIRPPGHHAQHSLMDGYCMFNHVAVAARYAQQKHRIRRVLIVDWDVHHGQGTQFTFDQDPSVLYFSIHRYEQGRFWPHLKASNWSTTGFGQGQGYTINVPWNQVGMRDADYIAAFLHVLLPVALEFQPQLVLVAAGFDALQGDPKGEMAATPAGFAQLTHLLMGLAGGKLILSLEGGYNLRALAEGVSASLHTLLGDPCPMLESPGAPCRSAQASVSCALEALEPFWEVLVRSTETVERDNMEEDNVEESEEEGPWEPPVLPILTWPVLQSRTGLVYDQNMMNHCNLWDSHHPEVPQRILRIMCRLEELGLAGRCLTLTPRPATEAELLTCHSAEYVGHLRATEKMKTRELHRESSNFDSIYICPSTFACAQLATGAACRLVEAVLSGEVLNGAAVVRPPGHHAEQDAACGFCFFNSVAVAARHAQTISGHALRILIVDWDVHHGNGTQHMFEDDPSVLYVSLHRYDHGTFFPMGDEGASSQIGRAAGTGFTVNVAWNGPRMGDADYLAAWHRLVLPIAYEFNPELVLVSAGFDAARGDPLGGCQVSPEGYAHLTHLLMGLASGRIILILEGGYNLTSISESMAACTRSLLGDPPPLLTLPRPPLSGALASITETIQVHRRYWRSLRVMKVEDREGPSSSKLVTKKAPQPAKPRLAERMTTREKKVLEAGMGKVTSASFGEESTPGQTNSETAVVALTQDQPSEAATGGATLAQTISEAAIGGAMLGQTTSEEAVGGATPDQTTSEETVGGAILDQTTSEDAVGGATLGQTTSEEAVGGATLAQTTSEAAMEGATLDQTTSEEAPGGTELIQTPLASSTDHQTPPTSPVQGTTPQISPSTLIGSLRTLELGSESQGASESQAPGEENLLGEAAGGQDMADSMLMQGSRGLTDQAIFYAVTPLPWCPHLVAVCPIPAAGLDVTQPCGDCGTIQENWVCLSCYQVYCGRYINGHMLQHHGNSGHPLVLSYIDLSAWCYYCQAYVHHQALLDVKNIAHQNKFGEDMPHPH

[4] = system: DU-145; assay: Upregulation of histone H3 level in human DU-145 cells incubated for 24 hrs by Western blot analysis; assay type: functional, cell-based; settings: dose 0.8-3.2 µM
[5] = system: DU-145; assay: Inhibition of cell migration in human DU-145 cells assessed as suppression of wound closure incubated for 12 hrs by wound healing assay; assay type: functional, cell-based; settings: dose 0.2-1.6 µM
[6] = Cmax in Sprague-Dawley rat at 10 mg/kg, po measured upto 24 hrs by LC-MS/MS analysis; assay type: ADME, organism-based; settings: in vivo
[7] = target: Histone deacetylase 2 (Homo sapiens, UniProt Q92769); assay: Inhibition of human HDAC2 incubated for 10 mins followed by fluorogenic substrate addition by fluorescence based analysis
Chain of Histone deacetylase 2 (Q92769 whole entry): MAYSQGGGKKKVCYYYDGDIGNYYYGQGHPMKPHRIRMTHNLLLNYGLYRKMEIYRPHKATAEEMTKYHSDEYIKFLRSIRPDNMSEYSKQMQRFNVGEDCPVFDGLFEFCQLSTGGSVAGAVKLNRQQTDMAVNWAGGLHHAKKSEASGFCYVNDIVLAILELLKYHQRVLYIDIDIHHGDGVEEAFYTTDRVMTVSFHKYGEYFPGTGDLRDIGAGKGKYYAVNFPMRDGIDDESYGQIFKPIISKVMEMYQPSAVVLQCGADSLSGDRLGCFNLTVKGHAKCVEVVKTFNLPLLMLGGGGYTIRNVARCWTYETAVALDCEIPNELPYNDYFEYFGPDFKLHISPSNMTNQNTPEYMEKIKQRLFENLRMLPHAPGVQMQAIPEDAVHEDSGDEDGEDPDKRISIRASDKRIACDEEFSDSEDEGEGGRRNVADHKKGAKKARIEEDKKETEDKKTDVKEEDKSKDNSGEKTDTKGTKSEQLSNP

[8] = system: HCT-116; assay: Antiproliferative activity against human HCT-116 cells incubated for 96 hrs by MTT assay; assay type: functional, cell-based; settings: HCT-116, 96 h
[9] = system: DU-145; assay: Antitumor activity against human DU-145 cells xenografted in Balb/c nude mouse model assessed as tumor growth inhibition at high dose administered as po once daily for 40 days relative to control; assay type: functional; settings: time 40 day
[10] = system: NCI-H446; assay: Antiproliferative activity against human NCI-H446 cells incubated for 96 hrs by MTT assay; assay type: functional, cell-based; settings: NCI-H446, 96 h
[11] = system: PC-3; assay: Antiproliferative activity against human PC-3 cells incubated for 96 hrs by MTT assay; assay type: functional, cell-based; settings: PC-3, 96 h
[12] = Clearance in Sprague-Dawley rat at 2 mg/kg, iv measured upto 24 hrs by LC-MS/MS analysis; assay type: ADME, organism-based; settings: in vivo
[13] = system: DU-145; assay: Antitumor activity against human DU-145 cells xenografted in Balb/c nude mouse model assessed as tumor growth inhibition at 100 mg/kg, po administered once daily for 40 days in presence of docetaxel relative to control; assay type: functional; settings: DU-145, 960 h, time 40 day, read-out: TGI
[14] = system: DU-145; assay: Inhibition of colony formation in human DU-145 cells assessed as suppression of colony formation at 3.2 uM measured after […] by crystal violet staining based analysis relative to control; assay type: functional
[15] = Volume of distribution in Sprague-Dawley rat at 2 mg/kg, iv measured upto 24 hrs by LC-MS/MS analysis; assay type: ADME, organism-based; settings: in vivo
[16] = Acute toxicity in Sprague-Dawley rat assessed as effect on spleen at 500 to 4500 mg/kg, po measured after 15 days; assay type: organism-based; settings: in vivo, 360 h, dose 500-4500 mg/kg, time 15 day
[17] = AUC (0 to infinity) in Sprague-Dawley rat at 10 mg/kg, po measured upto 24 hrs by LC-MS/MS analysis; assay type: ADME, organism-based; settings: in vivo
[18] = Cmax in Sprague-Dawley rat at 2 mg/kg, iv measured upto 24 hrs by LC-MS/MS analysis; assay type: ADME, organism-based; settings: in vivo
[19] = Acute toxicity in female Sprague-Dawley rat assessed as effect on body weight at 500 to 4500 mg/kg, po measured every 3 days for 15 days; assay type: organism-based; settings: in vivo, 360 h, dose 500-4500 mg/kg, time 15 day
[20] = system: DU-145; assay: Antiproliferative activity against human DU-145 cells incubated for 96 hrs by MTT assay; assay type: functional, cell-based; settings: DU-145, 96 h
[21] = target: Histone deacetylase 11 (Homo sapiens, UniProt Q96DB2); assay: Inhibition of human HDAC11 incubated for 10 mins followed by fluorogenic substrate addition by fluorescence based analysis
Chain of Histone deacetylase 11 (Q96DB2 whole entry): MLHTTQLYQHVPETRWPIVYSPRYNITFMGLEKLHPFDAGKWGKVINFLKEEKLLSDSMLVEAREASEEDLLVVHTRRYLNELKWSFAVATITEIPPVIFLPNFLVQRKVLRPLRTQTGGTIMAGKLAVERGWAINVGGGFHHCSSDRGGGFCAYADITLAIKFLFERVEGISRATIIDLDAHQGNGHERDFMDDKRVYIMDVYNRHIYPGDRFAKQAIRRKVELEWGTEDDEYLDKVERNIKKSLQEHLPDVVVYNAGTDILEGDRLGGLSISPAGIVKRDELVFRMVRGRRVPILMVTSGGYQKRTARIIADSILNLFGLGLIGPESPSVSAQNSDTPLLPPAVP

[22] = system: DU-145; assay: Induction of apoptosis in human DU-145 cells assessed as apoptotic rate at 1.6 uM measured after 72 hrs by annexin V-FITC and PI staining based flow cytometry analysis relative to control; assay type: functional
[23] = system: DU-145; assay: Downregulation of HDAC6 expression in human DU-145 cells at 0.8 uM incubated for 24 hrs by Western blot analysis; assay type: functional, cell-based
[24] = system: DU-145; assay: Induction of apoptosis in human DU-145 cells assessed as apoptotic rate at 0.8 uM measured after 72 hrs by annexin V-FITC and PI staining based flow cytometry analysis (reference value: 3.41%); assay type: functional
[25] = Acute toxicity in male Sprague-Dawley rat assessed as effect on body weight at 500 to 4500 mg/kg, po measured every 3 days for 15 days; assay type: organism-based; settings: in vivo, 360 h, dose 500-4500 mg/kg, time 15 day
[26] = system: DU-145; assay: Induction of cell cycle arrest in human DU-145 cells assessed as increase in accumulation of cells at G2/M phase incubated for 24 hrs by PI staining based flow cytometry analysis; assay type: functional; settings: dose 0.4-3.2 µM
[27] = Half life in Sprague-Dawley rat at 10 mg/kg, po measured upto 24 hrs by LC-MS/MS analysis; assay type: ADME, organism-based; settings: in vivo
[28] = Acute toxicity in Sprague-Dawley rat assessed as effect on liver at 500 to 4500 mg/kg, po measured after 15 days; assay type: organism-based; settings: in vivo, 360 h, dose 500-4500 mg/kg, time 15 day
[29] = system: LNCaP; assay: Antiproliferative activity against human LNCaP cells incubated for 96 hrs by MTT assay; assay type: functional, cell-based
[30] = system: A549; assay: Antiproliferative activity against human A549 cells incubated for 96 hrs by MTT assay; assay type: functional, cell-based; settings: A549, 96 h
[31] = system: MDA-MB-231; assay: Antiproliferative activity against human MDA-MB-231 cells incubated for 96 hrs by MTT assay; assay type: functional, cell-based; settings: MDA-MB-231, 96 h
[32] = target: Histone deacetylase 7 (Homo sapiens, UniProt Q8WUI4); assay: Inhibition of human HDAC7 incubated for 10 mins followed by fluorogenic substrate addition by fluorescence based analysis
Chain of Histone deacetylase 7 (Q8WUI4 whole entry): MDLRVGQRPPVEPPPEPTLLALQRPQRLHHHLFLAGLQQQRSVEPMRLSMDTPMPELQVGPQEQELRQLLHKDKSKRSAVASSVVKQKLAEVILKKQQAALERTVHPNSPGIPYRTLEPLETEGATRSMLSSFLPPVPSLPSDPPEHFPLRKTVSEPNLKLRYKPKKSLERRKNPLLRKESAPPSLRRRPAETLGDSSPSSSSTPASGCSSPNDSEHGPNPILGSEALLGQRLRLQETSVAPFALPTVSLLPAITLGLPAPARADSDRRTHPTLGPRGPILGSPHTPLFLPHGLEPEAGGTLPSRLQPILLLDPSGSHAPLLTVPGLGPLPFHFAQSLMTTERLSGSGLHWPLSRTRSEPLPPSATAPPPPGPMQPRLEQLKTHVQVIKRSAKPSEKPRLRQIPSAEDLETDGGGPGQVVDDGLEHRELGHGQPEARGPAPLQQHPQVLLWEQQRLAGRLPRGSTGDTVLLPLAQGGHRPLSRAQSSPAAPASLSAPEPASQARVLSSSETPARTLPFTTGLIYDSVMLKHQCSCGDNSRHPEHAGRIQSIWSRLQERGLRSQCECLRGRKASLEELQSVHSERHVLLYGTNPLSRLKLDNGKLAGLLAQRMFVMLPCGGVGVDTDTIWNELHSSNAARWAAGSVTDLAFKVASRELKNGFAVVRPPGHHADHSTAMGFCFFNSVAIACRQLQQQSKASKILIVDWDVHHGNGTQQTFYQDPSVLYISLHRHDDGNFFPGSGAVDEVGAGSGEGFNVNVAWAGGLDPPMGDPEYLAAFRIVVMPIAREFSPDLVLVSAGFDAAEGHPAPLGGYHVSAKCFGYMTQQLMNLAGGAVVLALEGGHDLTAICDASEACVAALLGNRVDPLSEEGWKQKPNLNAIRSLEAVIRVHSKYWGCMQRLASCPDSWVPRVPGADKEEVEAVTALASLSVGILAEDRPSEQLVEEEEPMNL

[33] = Acute toxicity in Sprague-Dawley rat assessed as effect on heart at 500 to 4500 mg/kg, po measured after 15 days; assay type: organism-based; settings: in vivo, 360 h, dose 500-4500 mg/kg, time 15 day
[34] = system: HT-29; assay: Antiproliferative activity against human HT-29 cells incubated for 96 hrs by MTT assay; assay type: functional, cell-based; settings: HT-29, 96 h
[35] = target: Histone deacetylase 3 (Homo sapiens, UniProt O15379); assay: Inhibition of human HDAC3 incubated for 10 mins followed by fluorogenic substrate addition by fluorescence based analysis
Chain of Histone deacetylase 3 (O15379 whole entry): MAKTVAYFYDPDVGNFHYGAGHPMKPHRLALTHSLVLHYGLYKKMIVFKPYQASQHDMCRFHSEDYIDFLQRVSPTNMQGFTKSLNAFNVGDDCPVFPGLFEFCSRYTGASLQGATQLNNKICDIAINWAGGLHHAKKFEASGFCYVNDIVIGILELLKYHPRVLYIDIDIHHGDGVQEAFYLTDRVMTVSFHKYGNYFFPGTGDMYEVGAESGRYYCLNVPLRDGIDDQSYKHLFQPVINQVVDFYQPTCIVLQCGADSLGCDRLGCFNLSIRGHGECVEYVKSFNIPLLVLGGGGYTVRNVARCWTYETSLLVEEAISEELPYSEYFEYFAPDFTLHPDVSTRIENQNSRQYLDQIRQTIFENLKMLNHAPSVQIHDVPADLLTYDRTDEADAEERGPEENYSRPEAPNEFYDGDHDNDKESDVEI

[36] = system: DU-145; assay: Antitumor activity against human DU-145 cells xenografted in Balb/c nude mouse model assessed as tumor growth inhibition at 200 mg/kg, po administered once daily for 40 days in presence of docetaxel relative to control; assay type: functional; settings: DU-145, 960 h, time 40 day, read-out: TGI
[37] = system: MCF7; assay: Antiproliferative activity against human MCF7 cells incubated for 96 hrs by MTT assay; assay type: functional, cell-based; settings: MCF7, 96 h
[38] = target: Histone deacetylase 1 (Homo sapiens, UniProt Q13547); assay: Inhibition of human HDAC1 incubated for 10 mins followed by fluorogenic substrate addition by fluorescence based analysis
Chain of Histone deacetylase 1 (Q13547 whole entry): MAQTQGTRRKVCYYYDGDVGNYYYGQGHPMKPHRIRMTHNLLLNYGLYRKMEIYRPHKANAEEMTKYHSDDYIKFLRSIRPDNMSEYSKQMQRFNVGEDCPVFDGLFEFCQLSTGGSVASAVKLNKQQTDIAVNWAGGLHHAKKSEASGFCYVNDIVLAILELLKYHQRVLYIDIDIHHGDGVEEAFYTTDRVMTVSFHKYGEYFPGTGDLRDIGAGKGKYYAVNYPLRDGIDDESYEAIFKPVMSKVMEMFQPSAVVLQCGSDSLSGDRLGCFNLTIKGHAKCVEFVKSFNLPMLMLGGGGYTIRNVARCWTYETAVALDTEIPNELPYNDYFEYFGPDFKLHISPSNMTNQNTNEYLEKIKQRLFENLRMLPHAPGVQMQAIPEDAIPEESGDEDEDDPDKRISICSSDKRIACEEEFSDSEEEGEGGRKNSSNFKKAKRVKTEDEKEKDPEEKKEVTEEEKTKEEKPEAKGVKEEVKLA

[39] = Oral bioavailability in Sprague-Dawley rat at 10 mg/kg measured upto 24 hrs by LC-MS/MS analysis; assay type: ADME, organism-based; settings: in vivo
[40] = system: DU-145; assay: animal or person; assay type: functional, Homo sapiens; settings: Mus musculus, DU-145, 960 h, route po, time 40 day, read-out: TGI
Description: Antitumor activity against human DU-145 cells xenografted in Balb/c nude mouse model assessed as tumor growth inhibition at 100 mg/kg, po administered once daily for 40 days relative to control

[41] = target: Histone deacetylase 9 (Homo sapiens, UniProt Q9UKV0); assay: Inhibition of human HDAC9 incubated for 10 mins followed by fluorogenic substrate addition by fluorescence based analysis
Chain of Histone deacetylase 9 (Q9UKV0 whole entry): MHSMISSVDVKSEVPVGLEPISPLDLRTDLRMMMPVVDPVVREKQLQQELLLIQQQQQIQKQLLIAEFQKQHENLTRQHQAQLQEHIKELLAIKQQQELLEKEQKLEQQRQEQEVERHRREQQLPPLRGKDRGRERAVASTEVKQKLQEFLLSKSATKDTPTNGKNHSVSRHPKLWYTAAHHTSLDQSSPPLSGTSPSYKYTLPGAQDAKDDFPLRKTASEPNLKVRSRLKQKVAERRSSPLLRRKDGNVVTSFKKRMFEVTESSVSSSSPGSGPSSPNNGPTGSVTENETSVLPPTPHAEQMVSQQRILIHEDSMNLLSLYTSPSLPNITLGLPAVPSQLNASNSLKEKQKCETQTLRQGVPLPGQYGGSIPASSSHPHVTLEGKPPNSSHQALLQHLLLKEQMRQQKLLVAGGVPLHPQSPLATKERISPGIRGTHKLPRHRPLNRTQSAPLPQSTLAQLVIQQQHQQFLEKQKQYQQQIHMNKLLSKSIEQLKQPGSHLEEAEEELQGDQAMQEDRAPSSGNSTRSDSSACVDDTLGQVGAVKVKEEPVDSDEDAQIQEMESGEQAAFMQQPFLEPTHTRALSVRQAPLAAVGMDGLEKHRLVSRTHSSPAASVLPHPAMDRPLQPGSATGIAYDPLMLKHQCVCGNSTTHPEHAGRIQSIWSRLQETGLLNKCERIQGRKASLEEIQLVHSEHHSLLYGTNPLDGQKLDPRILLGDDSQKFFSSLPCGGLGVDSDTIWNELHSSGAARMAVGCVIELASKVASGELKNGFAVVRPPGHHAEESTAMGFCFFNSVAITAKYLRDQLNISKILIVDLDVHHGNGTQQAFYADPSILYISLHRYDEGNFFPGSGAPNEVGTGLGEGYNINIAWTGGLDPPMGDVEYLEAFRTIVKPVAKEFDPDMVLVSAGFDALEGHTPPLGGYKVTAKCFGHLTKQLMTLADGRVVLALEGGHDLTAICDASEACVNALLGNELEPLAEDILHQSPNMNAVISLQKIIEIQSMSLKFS

Q: Which Activity [1] does the source give for COc1ccccc1/C=C1\CC(=O)N(CCCCCCC(=O)NO)C1=O here?
A: Dose-Dependent Effect

Q: What about the inhibition [2] of the same compound?
A: Dose-Dependent Effect

Q: And the IC50 [3]?
A: 3 nM

Q: What about the Activity [4] of the same compound?
A: Dose-Dependent Effect

Q: What about the inhibition [5] of the same compound?
A: Dose-Dependent Effect

Q: What about the Cmax [6] of the same compound?
A: 774 ng/mL

Q: What about the IC50 [7] of the same compound?
A: 14.1 nM

Q: What about the IC50 [8] of the same compound?
A: 470 nM

Q: What about the TGI [9] of the same compound?
A: 68%

Q: And the IC50 [10]?
A: 650 nM

Q: What about the IC50 [11] of the same compound?
A: 720 nM

Q: And the clearance [12]?
A: 26.2 mL/min/kg

Q: And the inhibition in vivo at 100 mg/kg [13]?
A: 71.4%

Q: And the inhibition at 3.2 µM [14]?
A: 100%

Q: What about the Vd [15] of the same compound?
A: 4.63 L/kg

Q: What about the Activity [16] of the same compound?
A: Non-Toxic

Q: And the AUC(0-inf) [17]?
A: 3800 ng·h/mL

Q: What about the Cmax [18] of the same compound?
A: 852 ng/mL

Q: And the Activity [19]?
A: Non-Toxic

Q: And the IC50 [20]?
A: 160 nM

Q: And the IC50 [21]?
A: > 5000 nM

Q: And the Activity [22]?
A: 59.87%

Q: What about the Activity [23] of the same compound?
A: Active

Q: And the Activity [24]?
A: 27.45%

Q: What about the Activity [25] of the same compound?
A: Non-Toxic

Q: What about the Activity [26] of the same compound?
A: Dose-Dependent Effect

Q: What about the half-life [27] of the same compound?
A: 2.87 h

Q: What about the Activity [28] of the same compound?
A: Non-Toxic

Q: What about the IC50 [29] of the same compound?
A: 630 nM

Q: What about the IC50 [30] of the same compound?
A: 1390 nM

Q: What about the IC50 [31] of the same compound?
A: 310 nM

Q: And the IC50 [32]?
A: > 5000 nM

Q: And the Activity [33]?
A: Non-Toxic

Q: What about the IC50 [34] of the same compound?
A: 1050 nM

Q: And the IC50 [35]?
A: 20 nM

Q: And the inhibition in vivo at 200 mg/kg [36]?
A: 81.3%

Q: And the IC50 [37]?
A: 350 nM

Q: And the IC50 [38]?
A: 12.6 nM

Q: What about the bioavailability [39] of the same compound?
A: 46.5%

Q: And the inhibition in vivo at 100 mg/kg [40]?
A: 50.9%

Q: What about the IC50 [41] of the same compound?
A: > 5000 nM
